The values below come from publication PMC8237258 (Journal of Medicinal Chemistry, 2021).

Where “and” joins values, the source holds several entries; their conditions need not be identical. Equal values may be shown once. Where a SMILES comes first, the peptide text is derived from it. Bridges are numbered along the chain shown (N, C = ends). [ ]: non-standard residue; d: D form.

The target in series [1] is GC-C receptor (Homo sapiens, UniProt P25092). The series is described as follows: cell-based.
Series [2] can be described thus: in vitro. The following applies: simulated gi fluid, pH 1.3.
The nature of series [3]: in vitro. The following applies: pig, simulated gi fluid, pH 6.8.
The target of series [4] is guanylate cyclase-C (human (endogenous in T84)) (UniProt P25092).
For series [5] the following is noted: in vivo; cited from earlier work.

Chain of GC-C receptor (P25092 24-1073 limits assumed): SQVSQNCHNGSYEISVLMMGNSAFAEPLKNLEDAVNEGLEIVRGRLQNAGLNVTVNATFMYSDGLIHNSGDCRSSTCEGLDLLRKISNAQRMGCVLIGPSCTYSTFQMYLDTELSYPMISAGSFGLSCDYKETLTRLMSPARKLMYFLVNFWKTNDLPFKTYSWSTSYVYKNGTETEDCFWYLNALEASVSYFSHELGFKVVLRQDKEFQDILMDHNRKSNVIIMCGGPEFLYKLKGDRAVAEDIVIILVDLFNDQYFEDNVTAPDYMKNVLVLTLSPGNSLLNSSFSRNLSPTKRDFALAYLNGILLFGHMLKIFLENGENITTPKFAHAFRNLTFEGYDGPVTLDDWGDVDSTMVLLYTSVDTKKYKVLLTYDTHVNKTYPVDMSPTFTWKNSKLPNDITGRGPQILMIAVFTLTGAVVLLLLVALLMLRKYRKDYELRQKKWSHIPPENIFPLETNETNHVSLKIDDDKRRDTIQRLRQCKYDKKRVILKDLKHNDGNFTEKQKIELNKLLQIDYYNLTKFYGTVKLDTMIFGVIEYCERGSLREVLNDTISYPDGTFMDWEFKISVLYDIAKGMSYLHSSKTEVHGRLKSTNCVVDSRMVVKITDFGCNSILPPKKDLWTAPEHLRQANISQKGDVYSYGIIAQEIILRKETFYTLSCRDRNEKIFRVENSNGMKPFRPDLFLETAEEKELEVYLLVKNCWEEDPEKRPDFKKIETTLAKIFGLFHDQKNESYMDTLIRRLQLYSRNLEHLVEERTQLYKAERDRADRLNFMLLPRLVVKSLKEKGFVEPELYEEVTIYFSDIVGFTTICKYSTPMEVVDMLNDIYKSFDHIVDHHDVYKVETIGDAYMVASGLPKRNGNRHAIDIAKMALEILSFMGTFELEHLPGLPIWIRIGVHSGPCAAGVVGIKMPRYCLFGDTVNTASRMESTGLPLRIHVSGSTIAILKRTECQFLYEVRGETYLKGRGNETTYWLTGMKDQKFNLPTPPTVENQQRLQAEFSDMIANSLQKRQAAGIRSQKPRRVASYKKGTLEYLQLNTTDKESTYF
Chain of guanylate cyclase-C (human (endogenous in T84)) (P25092 24-1073): as the sequence (P25092 24-1073 limits assumed) above

As to `CC(C)[C@@H](NC(=O)[C@@H]1CSSC[C@@H]2NC(=O)[C@H](Cc3ccc(O)cc3)NC(=O)[C@H](CCC(=O)O)NC(=O)[C@@H]3CSSC[C@H](NC(=O)[C@H](C)NC(=O)[C@@H]4CCCN4C(=O)[C@H](CC(N)=O)NC(=O)[C@H](CSSC[C@H](N)C(=O)N3)NC2=O)C(=O)N[C@@H]([C@@H](C)O)C(=O)NCC(=O)N1)C(N)=O` [[D-Val^14]-Linaclotide] (H-CCEYCCNPACTGC[dV]-NH2; disulfide 1-6, 2-10, 5-13), in series [1], a half-maximal response (EC50) required 104 ± 21.6 nM, the EC50/EC50 linaclotide fold was found to be 28 fold and the “fold less potent than [D-Tyr^14]-Linaclotide” value is recorded as 6 fold. The half-life in series [2] was above 8 h. The compound also showed a half-life in series [3] above 8 h.
[D-Tyr^14]-Linaclotide (peptide) yielded an EC50 of cGMP accumulation in human T84 cells (cGMP HTRF assay kit) in series [4] of 16.5 nM.
The same measure, in the same setting: as for [desTyr^14]-Linaclotide-NH2 (peptide), the figure is 33.7 nM; as for Linaclotide (peptide), 3.7 nM.
Still for that read-out and setting: as for [D-Val^14]-Linaclotide (peptide), the figure is 104 nM.
As to `C[C@@H]1NC(=O)[C@@H]2CCCN2C(=O)[C@H](CC(N)=O)NC(=O)[C@@H]2CSSC[C@H](N)C(=O)N[C@H]3CSSC[C@H](NC1=O)C(=O)N[C@@H]([C@@H](C)O)C(=O)NCC(=O)N[C@H](C(=O)N[C@@H](Cc1ccc(O)cc1)C(=O)O)CSSC[C@H](NC(=O)[C@H](Cc1ccc(O)cc1)NC(=O)[C@H](CCC(=O)O)NC3=O)C(=O)N2` [Linaclotide, reference compound] (H-CCEYCCNPACTGCY-OH; disulfide 1-6, 2-10, 5-13 (inferred)), the half-maximal effective concentration (EC50) in series [1] was determined as 3.7 ± 0.5 nM. The results for the half-life in series [2] and in series [3] were above 8 h and 0.8 h, respectively. For the same compound, the “absorption into the systemic circulation” value in series [5] is listed as “insignificant”. The “amount excreted in the feces” value in series [5] was 3–5%.
In the case of `C[C@@H]1NC(=O)[C@@H]2CCCN2C(=O)[C@H](CC(N)=O)NC(=O)[C@@H]2CSSC[C@H](N)C(=O)N[C@H]3CSSC[C@H](NC1=O)C(=O)N[C@@H]([C@@H](C)O)C(=O)NCC(=O)N[C@H](C(N)=O)CSSC[C@H](NC(=O)[C@H](Cc1ccc(O)cc1)NC(=O)[C@H](CCC(=O)O)NC3=O)C(=O)N2` [[desTyr^14]-Linaclotide-NH2] (H-CCEYCCNPACTGC-NH2; disulfide 1-6, 2-10, 5-13), it took 33.7 ± 5.7 nM to reach a half-maximal effect in series [1] (EC50). The half-life in series [2] and in series [3] was above 8 h in each case.
In series [4], “[Sec^1,6; D-Tyr^14]-Linaclotide (peptide)” registered an EC50 of cGMP accumulation in human T84 cells (cGMP HTRF assay kit) of 5 nM.
For the compound `C[C@@H]1NC(=O)[C@@H]2CCCN2C(=O)[C@H](CC(N)=O)NC(=O)[C@@H]2CSSC[C@H](N)C(=O)N[C@H]3CSSC[C@H](NC1=O)C(=O)N[C@@H]([C@@H](C)O)C(=O)NCC(=O)N[C@H](C(=O)N[C@H](Cc1ccc(O)cc1)C(N)=O)CSSC[C@H](NC(=O)[C@H](Cc1ccc(O)cc1)NC(=O)[C@H](CCC(=O)O)NC3=O)C(=O)N2` [[D-Tyr^14]-Linaclotide] (H-CCEYCCNPACTGC[dY]-NH2; disulfide 1-6, 2-10, 5-13), it took 16.5 ± 5.8 nM to reach a half-maximal effect in series [1] (EC50). Moreover, in series [1], the EC50/EC50 linaclotide fold is given as 4.5 fold. The half-life in series [2] and in series [3] was above 8 h throughout.
Take Linaclotide-NH2 (peptide): the EC50 of cGMP accumulation in human T84 cells (cGMP HTRF assay kit) in series [4] stood at 7.2 nM.
`C[C@@H]1NC(=O)[C@@H]2CCCN2C(=O)[C@H](CC(N)=O)NC(=O)[C@@H]2CSSC[C@@H]3NC(=O)[C@H](Cc4ccc(O)cc4)NC(=O)[C@@H]4CSSC[C@H](NC(=O)[C@H](Cc5ccc(O)cc5)NC(=O)[C@H](CCC(=O)O)NC(=O)[C@H](CSSC[C@H](NC1=O)C(=O)N[C@@H]([C@@H](C)O)C(=O)NCC(=O)N4)NC3=O)C(=O)N2` [[cyclic]-Linaclotide] (cyclo(ACTGCYCCEYCCNP); disulfide 2-8, 5-11, 7-12): the EC50 in series [1] is 2990 ± 929 nM. In addition, the EC50/EC50 linaclotide fold in series [1] was 808 fold and ~800 fold. The half-life in series [2] and in series [3] was above 8 h in each case.
Compound [cyclic]-Linaclotide (peptide) displayed an EC50 of cGMP accumulation in human T84 cells (cGMP HTRF assay kit) in series [4] of 2990 nM.
In series [1], `C[C@@H]1NC(=O)[C@@H]2CCCN2C(=O)[C@H](CC(N)=O)NC(=O)[C@@H]2CSSC[C@H](N)C(=O)N[C@H]3CSSC[C@H](NC1=O)C(=O)N[C@@H]([C@@H](C)O)C(=O)NCC(=O)N[C@H](C(=O)N[C@@H](Cc1ccc(O)cc1)C(N)=O)CSSC[C@H](NC(=O)[C@H](Cc1ccc(O)cc1)NC(=O)[C@H](CCC(=O)O)NC3=O)C(=O)N2` [Linaclotide-NH2] (H-CCEYCCNPACTGCY-NH2; disulfide 1-6, 2-10, 5-13) gave an EC50 of 7.2 ± 2.1 nM. The half-life in series [2] and in series [3] was above 8 h each time.
